The values that follow come from patent US3992540A, “3-Quinoline-substituted 4-oxy-carboxamides” (Roussel-UCLAF, priority 1974, dated 1976).

Structures are written as SMILES.

The subject of data set [1] is stretchings provoked by intraperitoneal injection of acetic acid to mice. Description: Analgesic activity, acetic acid stretching (writhing) test in mice (Koster et al). The note with it: Mus musculus, oral, 30 minutes before acetic acid injection (100 mg/kg i.p.), stretchings totaled over 15 minutes, read-out: DA50, dose which reduced by 50% the number of stretchings as compared to the controls. It counts as in vivo. Here is the method:
The test was based on that of Koster et al [Fed. Proc., Vol. 18 (1959), p. 412] in which the intraperitoneal injection of acetic acid to mice provokes repeated stretching and twisting movements which persist for more than 6 hours. Analgesics prevent or suspress these syndromes which are considered to be an exteriorization of a diffuse abdominal pain. A 1% solution of acetic acid in water was used at a dose of 0.01 ml/g or 100 mg/kg of acetic acid to release the syndrome.
The test product was orally administered 30 minutes before the acetic acid injection and the mice were fasted for 24 hours before the start of the test. The stretchings for the mice were observed and totaled for each mouse in a 15 minutes observation period starting just after the acetic acid injection. The results were expressed as DA50, that dose which reduced by 50% the number of stretchings as compared to the controls and the DA50 for N-[2-thiazolyl]-4-hydroxy-8 -trifluoromethyl-3-quinoline-carboxamide was 5 mg/kg; for N-[2 -thiazolyl]-4-hydroxy-8-chloro-3-quinoline-carboxamide was 4 mg/kg; and for N-[2-thiazolyl]-4-hydroxy-7-trifluoromethyl- 3-quinoline-carboxamide was 7 mg/kg.
Background: An intraperitoneal irritant provokes the stretching counted in writhing tests.

For the next data set, the system named is mice. The note with it: mouse, in vivo, po, 500 mg/kg.
Data set [2] is described as follows: Acute toxicity in mice, intraperitoneal. The note with it: mouse, in vivo, ip, observed for a week, graphically determined by Miller et al method, read-out: DL50. The protocol: The acute toxicity was determined on groups of 10 mice weighing between 18-22 g and the test product was administered intraperitoneally in increasing dose in suspensions at 0.25 % in carboxymethyl-cellulose added of Tween 80.

On to `O=C(Nc1nccs1)c1cnc2cc(C(F)(F)F)ccc2c1O` [N-[2-thiazolyl]-4-hydroxy-7-trifluoromethyl-3-quinoline-carboxamide], for which the ED50 in data set [1] was 7 mg/kg.

As for `O=C(Nc1nccs1)c1cnc2c(Cl)cccc2c1O` [N-[2-thiazolyl]-4-hydroxy-8-chloro-3-quinoline-carboxamide], in data set [1], the ED50 came out at 4 mg/kg.

Consider `O=C(Nc1nccs1)c1cnc2c(C(F)(F)F)cccc2c1O` [N-[2-thiazolyl]-4-hydroxy-8-trifluoromethyl-3-quinoline-carboxamide], for which the ED50 in data set [1] came out at 5 mg/kg. Besides, the “tolerance when orally administered” value with mice is recorded as “very well tolerated”. Besides, the LD50 at 168 h in data set [2] came to 225 mg/kg.
